In experiment [1] the target is T1, hGPR40 (Homo sapiens, UniProt O14842). Put plainly: FDSS-based intracellular calcium assay in cell lines expressing GPR40. The note with it: intracellular Ca2+ response, cells expressing GPR40, FDSS reader. Details: 3xFLAG; expressed in transfected cells. The method, then: FDSS-Based Intracellular Calcium Assay
Cell lines expressing GPR40 are generated using the pDEST-3×FLAG gene expression system and are cultured in culture medium comprising the following components: F12 (Gibco #11765), 10% lipid deprived fetal bovine serum, 250 μg/ml zeocin and 500 μg/ml G418. To conduct the fluorescent imaging plate reader (FLIPR)-based calcium flux assay to measure intracellular Ca^2+ response, cells expressing GPR40 are plated on 384 well plates (BD Biocoat #356697) at a density of 20,000 cells/20 μL medium per well in phenol red and serum-free DMEM (Gibco #21063-029) and incubated overnight. Using BD kit #s 80500-310 or -301, the cells are incubated with 20 μL per well of Hank's buffered salt solution with 1.7 mM probenecid and Fluo-3 at 37° C. for 30 min. Compounds are dissolved in DMSO and diluted to desired concentrations with assay buffer and added to the cells as 3× solution (20 μL per well). Run fluorescence/luminescence reader FDSS (Hamamatsu) to read intracellular Ca^2+ response.

The target of experiment [2] is T1, hGPR40.

Where a name gives a salt, the structure may show the parent alone. Read-outs that look alike come from different tables or passages of the source.

T1 sequence (O14842 whole entry): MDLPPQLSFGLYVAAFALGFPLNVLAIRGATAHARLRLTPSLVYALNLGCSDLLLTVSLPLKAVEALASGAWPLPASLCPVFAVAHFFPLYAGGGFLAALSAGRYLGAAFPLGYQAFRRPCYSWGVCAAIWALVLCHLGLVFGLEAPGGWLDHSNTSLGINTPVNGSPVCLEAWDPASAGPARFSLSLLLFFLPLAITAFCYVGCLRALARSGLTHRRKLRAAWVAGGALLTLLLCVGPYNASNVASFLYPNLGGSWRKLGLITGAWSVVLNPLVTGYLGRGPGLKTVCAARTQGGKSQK

What is called EC50 is the concentration giving half of the maximal effect. Regarding “2-((2S,3S,4R)-1-(4-(((3,4-trans)-1-(5-Chloro-2-methoxypyridin-4-yl)-3-methylpiperidin-4-yl)oxy)phenyl)-4-(3-methoxy-2-methylpropoxy)-3-methylpyrrolidin-2-yl)acetic acid [Example 21, Isomer 1]”, in experiment [1], the EC50 came out at 120 nM. On to “2-((2S,3S,4R)-1-(4-(((3,4-trans)-1-(5-Chloro-2-methoxypyridin-4-yl)-3-methylpiperidin-4-yl)oxy)phenyl)-4-(3-methoxy-2-methylpropoxy)-3-methylpyrrolidin-2-yl)acetic acid [Example 21, Isomer 2]”, for which the EC50 in experiment [1] is 100 nM. As to `COCCCO[C@H]1CN(c2ccc(O[C@@H]3CCN(c4cc(OC)ncc4Cl)C[C@H]3C)cc2)[C@@H](CC(=O)O)[C@@H]1C` (single isomer, unassigned) [Example 1], the EC50 is 56 nM in experiment [1] and 5 nM in experiment [2]. For `COCCCO[C@H]1CN(c2ccc(OC3CCN(c4cc(OC)ncc4Cl)CC3C)c(F)c2)[C@@H](CC(=O)O)[C@@H]1C` (single isomer, unassigned) [Example 7], the EC50 in experiment [1] came to 97 nM. Consider `CCOc1ccc(F)c(N2CCC(Oc3ccc(N4C[C@H](OCCCOC)[C@@H](C)[C@@H]4CC(=O)O)cn3)C(C)C2)c1` (single isomer, unassigned) [Example 9, HCl], for which the figures for the EC50 in experiment [1] and in experiment [2] were 170 nM and 35 nM, respectively.

For `CCOc1ccc(F)c(N2CCC(Oc3ccc(N4C[C@H](OCCCOC)[C@@H](C)[C@@H]4CC(=O)O)cc3)C(C)C2)c1` (single isomer, unassigned) [Example 14, HCl], the EC50 in experiment [1] was determined as 51 nM; in experiment [2], 7 nM. With `COCCCO[C@H]1CN(c2ccc(OC3CCN(c4cc(OC)ncc4Cl)CC3CC(C)C)nc2)[C@@H](CC(=O)O)[C@@H]1C` (single isomer, unassigned) [Example 18, Isomer 1], the EC50 in experiment [1] was 1300 nM.

As for `COCCCO[C@H]1CN(c2ccc(OC3CCN(c4cc(OC)ncc4Cl)CC3CC(C)C)nc2)[C@@H](CC(=O)O)[C@@H]1C` (single isomer, unassigned) [Example 18, Isomer 2], the EC50 in experiment [1] stood at 290 nM. Consider `COCCCO[C@H]1CN(c2ccc(OC3CCN(c4cc(OC)ncc4Cl)CC3CC(C)C)cc2)[C@@H](CC(=O)O)[C@@H]1C` (single isomer, unassigned) [Example 19, Isomer 1], for which, in experiment [1], the EC50 was 1500 nM. On to `COCCCO[C@H]1CN(c2ccc(OC3CCN(c4cc(OC)ncc4Cl)CC3CC(C)C)cc2)[C@@H](CC(=O)O)[C@@H]1C` (single isomer, unassigned) [Example 19, Isomer 2], for which, in experiment [1], the EC50 was 230 nM. `CCOc1ccc(F)c(N2CCC(Oc3ccc(N4C[C@H](OCCCOC)[C@@H](C)[C@@H]4CC(=O)O)cc3F)C(C)C2)c1` (single isomer, unassigned) [Example 20]: the concentration for a half-maximal effect (EC50) in experiment [1] is 110 nM. Regarding `COCCCO[C@H]1CN(c2cnc(OC3CCN(c4cc(OC)ncc4Cl)CC3C)c(F)c2)[C@@H](CC(=O)O)[C@@H]1C` (single isomer, unassigned) [Example 22], the EC50 in experiment [1] was 89 nM. As for `CCCCOc1cc(N2C[C@H](OCCCOC)[C@@H](C)[C@@H]2CC(=O)O)cnc1OC1CCN(c2cc(OC)ncc2Cl)CC1C` (single isomer, unassigned) [Example 23, TFA], in experiment [1], the EC50 worked out at 110 nM.

Regarding `COCCCO[C@H]1CN(c2cnc(OC3CCN(c4cc(OC)ncc4Cl)CC3C)c(C(F)(F)F)c2)[C@@H](CC(=O)O)[C@@H]1C` (single isomer, unassigned) [Example 24], the EC50 in experiment [1] worked out at 65 nM.

Regarding `COCCCO[C@H]1CN(c2cnc(OC3CCN(c4cc(OC)ncc4Cl)CC3C)c(C)c2)[C@@H](CC(=O)O)[C@@H]1C` (single isomer, unassigned) [Example 25], in experiment [1], the EC50 was 300 nM.

Turning to `COCCCO[C@H]1CN(c2ccc(OC3CCN(c4cc(OC)ncc4Cl)CC3C)cc2F)[C@@H](CC(=O)O)[C@@H]1C` (single isomer, unassigned) [Example 26], the EC50 in experiment [1] came to 110 nM. Turning to `COCCCO[C@H]1CN(c2ccc(OC3CCN(c4cc(OC)ncc4Cl)CC3C)cc2F)[C@H](CC(=O)O)[C@@H]1C` (single isomer, unassigned) [Example 27], in experiment [1], the EC50 is 2000 nM. Regarding `COCCOCO[C@H]1CN(c2ccc(OC3CCN(c4cc(OC)ncc4Cl)CC3C)cc2)[C@@H](CC(=O)O)[C@@H]1C` (single isomer, unassigned) [Example 28], the EC50 in experiment [1] came out at 180 nM. For the molecule `COCCCO[C@H]1CN(c2ccc(OC3CCN(c4cc(OC)ncc4Cl)CC3C)nc2)[C@@H](CC(=O)O)[C@@H]1C` (stereo partly drawn) [Example 2, 2-((2S,3S,4R)-1-(6-(((3,4-trans)-1-(5-Chloro-2-methoxypyridin-4-yl)-3-methylpiperidin-4-yl)oxy)pyridin-3-yl)-4-(3-methoxypropoxy)-3-methylpyrrolidin-2-yl)acetic acid, HCl], the figures for the EC50 in experiment [1] and in experiment [2] were 180 nM and 27 nM, respectively. As for `CCOc1ccc(F)c(N2CCC(Oc3ccc(N4C[C@H](OCCCOC)[C@@H](C)[C@@H]4CC(=O)O)cc3)CC2)c1` [Example 3, 2-((2S,3S,4R)-1-(4-((1-(5-Ethoxy-2-fluorophenyl)piperidin-4-yl)oxy)phenyl)-4-(3-methoxypropoxy)-3-methylpyrrolidin-2-yl)acetic acid, HCl], in experiment [1], the EC50 stood at 200 nM.

As for `COCCCO[C@H]1CN(c2ccc(OC3CCN(c4cc(OC)ncc4Cl)CC3)cc2)[C@@H](CC(=O)O)[C@@H]1C` [Example 4, 2-((2S,3S,4R)-1-(4-((1-(5-Chloro-2-methoxypyridin-4-yl)piperidin-4-yl)oxy)phenyl)-4-(3-methoxypropoxy)-3-methylpyrrolidin-2-yl)acetic acid], the EC50 in experiment [1] stood at 73 nM; in experiment [2], 13 nM. For the molecule `CCOc1ccc(F)c(N2CCC(Oc3ccc(N4C[C@H](OCCCOC)[C@@H](C)[C@@H]4CC(=O)O)cn3)CC2)c1` [Example 5, 2-((2S,3S,4R)-1-(6-((1-(5-Ethoxy-2-fluorophenyl)piperidin-4-yl)oxy)pyridin-3-yl)-4-(3-methoxypropoxy)-3-methylpyrrolidin-2-yl)acetic acid], the EC50 in experiment [1] was 170 nM. With `COCCCO[C@H]1CN(c2ccc(OC3CCN(c4cc(OC)ncc4Cl)CC3)nc2)[C@@H](CC(=O)O)[C@@H]1C` [Example 6, 2-((2S,3S,4R)-1-(6-((1-(5-Chloro-2-methoxypyridin-4-yl)piperidin-4-yl)oxy)pyridin-3-yl)-4-(3-methoxypropoxy)-3-methylpyrrolidin-2-yl)acetic acid], the EC50 in experiment [1] was 200 nM; in experiment [2], 19 nM. For `CCc1cc(N2CCC(Oc3ccc(N4C[C@H](OCCCOC)[C@@H](C)[C@@H]4CC(=O)O)cc3)CC2)c(Cl)cn1` [Example 8, 2-((2S,3S,4R)-1-(4-((1-(5-Chloro-2-ethylpyridin-4-yl)piperidin-4-yl)oxy)phenyl)-4-(3-methoxypropoxy)-3-methylpyrrolidin-2-yl)acetic acid, HCl], in experiment [1], the concentration giving a half-maximal response (EC50) was found to be 1100 nM. For the molecule `CCOc1ccc(F)c(N2CCC(Oc3ccc(N4C[C@H](CCCOC)C[C@@H]4CC(=O)O)cc3)CC2)c1` [Example 10, 2-((2R,4R)-1-(4-((1-(5-Ethoxy-2-fluorophenyl)piperidin-4-yl)oxy)phenyl)-4-(3-methoxypropyl)pyrrolidin-2-yl)acetic acid, TFA], the 50% effective concentration (EC50) in experiment [1] turned out to be 380 nM; in experiment [2], 47 nM. For the molecule `CCOc1ccc(F)c(N2CCC(Oc3ccc(N4C[C@H](OCCOC)C[C@@H]4CC(=O)O)cc3)CC2)c1` [Example 13, 2-((2R,4R)-1-(4-((1-(5-Ethoxy-2-fluorophenyl)piperidin-4-yl)oxy)phenyl)-4-(2-methoxyethoxy)pyrrolidin-2-yl)acetic acid, TFA], in experiment [1], the EC50 worked out at 1000 nM. For `CCOc1ccc(F)c(N2CCC(Oc3ccc(N4C[C@H](OCCCS(C)(=O)=O)[C@@H](C)[C@@H]4CC(=O)O)cc3)CC2)c1` [Example 16, 2-((2S,3 S,4R)-1-(4-((1-(5-Ethoxy-2-fluorophenyl)piperidin-4-yl)oxy)phenyl)-3-methyl-4-(3-(methylsulfonyl)propoxy)pyrrolidin-2-yl)acetic acid], in experiment [1], the EC50 amounted to 980 nM. Take `COCCCO[C@H]1CN(c2cnc(OC3CCN(c4cc(OC)ncc4Cl)CC3)c(C(F)(F)F)c2)[C@@H](CC(=O)O)[C@@H]1C` [Example 30, 2-((2S,3S,4R)-1-(6-((1-(5-Chloro-2-methoxypyridin-4-yl)piperidin-4-yl)oxy)-5-(trifluoromethyl)pyridin-3-yl)-4-(3-methoxypropoxy)-3-methylpyrrolidin-2-yl) acetic acid]: in experiment [1], the EC50 worked out at 61 nM.

For `COc1cc(N2CCC(Oc3ccc(N4C[C@H](OCCCC#N)[C@@H](C)[C@@H]4CC(=O)O)cc3)C(C)C2)c(Cl)cn1` (stereo partly drawn) [Example 32, 2-((2S,3S,4R)-1-(4-(((3,4-trans)-1-(5-Chloro-2-methoxypyridin-4-yl)-3-methylpiperidin-4-yl)oxy)phenyl)-4-(3-cyanopropoxy)-3-methylpyrrolidin-2-yl)acetic acid], the EC50 in experiment [1] came out at 190 nM. Regarding `COCCCO[C@H]1CN(c2cnc(O[C@@H]3CCN(c4cc(OC)ncc4Cl)C[C@H]3C)nc2)[C@@H](CC(=O)O)[C@@H]1C` [Example 33, 2-((2S,3 S,4R)-1-(2-(((3R,4R)-1-(5-Chloro-2-methoxypyridin-4-yl)-3-methylpiperidin-4-yl)oxy)pyrimidin-5-yl)-4-(3-methoxypropoxy)-3-methylpyrrolidin-2-yl)acetic acid], the EC50 in experiment [1] came to 101 nM.

The record behind these values is patent US10717725B2, “Pyrrolidine GPR40 modulators” (BRISTOL-MYERS SQUIBB COMPANY, priority 2014, dated 2020).
